According to US11007184B2, “Cancer treatments using combinations of type 2 MEK and ERK inhibitors” (BIOMED VALLEY DISCOVERIES, INC., priority 2013, dated 2021):

How the values were obtained:
[1] = system: A375 cells; experiment: Focused combination study, Alamar Blue viability assay; format: cell-based, human; conditions: with the lower concentrations of Sorafenib
Procedure: (§1) Combinations were tested using a 10×8 dose matrix with a final DMSO concentration of 0.2%. A 96 hour assay incubation period followed, with subsequent addition of Alamar Blue 10% (v/v) and 4 hours incubation prior to reading on a fluorescent plate reader. After reading Alamar Blue, the medium/Alamar Blue mix was flicked off and 100 μl of CellTiter-Glo/PBS (1:1) added and the plates processed as per the manufacturer's instructions (Promega). Media only background values were subtracted before the data was analysed. The Bliss additivity model was then applied. In brief, predicted fractional inhibition values for combined inhibition were calculated using the equation […]) where A and B are the fractional inhibitions obtained by drug A alone or drug B alone at specific concentrations. Cbliss is the fractional inhibition that would be expected if the combination of the two drugs were exactly additive. Cbliss values are subtracted from the experimentally observed fractional inhibition values to give an 'excess over Bliss' value. […] Excess over Bliss values are plotted as heat maps±SD. For focused combination studies, the Alamar Blue viability assays were performed as described above for combination studies. Additionally, Caspase-Glo 3/7 assays were performed. In brief, HCT116 cells were seeded in triplicate in white 96-well plates at a cell density of 5000 cells/well in McCoy's 5A plus 10% FBS. A375 cells were seeded at a density of 5000 cells/well in DMEM plus 10% FBS. […] The final concentration of DMSO was 0.2%, and 800 nM staurosporine was included as a positive control. 24 and 48 hour assay incubation periods were used. Then, Caspase-Glo® 3/7 50% (v/v) was added, plates were mixed for 5 minutes on an orbital shaker and incubated for 1 hour at room temperature prior to reading on a luminescent plate reader. Media only background values were subtracted before the data was analysed.

[2] = system: HCT116 cells; experiment: as above; format: cell-based, human
Procedure: as §1

[3] = system: A375 cells; experiment: Dose escalation study; format: cell-based, human; conditions: Month 2; for Dose escalation progress: A375 cells; for Concentration in which escalated cells were growing: single agent escalation
Source text: Medium was refreshed every 3-4 days. […] Again, medium was refreshed every 3-4 days. The process was repeated as required (FIG. 19).

[4] = system: HCT116 KRAS KO (+/−); experiment: Single agent proliferation assay (CellTiter-Glo, 72 h); format: cell-based; conditions: Homo sapiens, HCT-116
[5] = system: RKO BRAF KO (+/−/−); experiment: as above; format: cell-based
[6] = system: MAPK signaling in A375 and HCT116 cells; experiment: Western blot analysis of MAPK signaling; format: cell-based, human
Procedure: For Western blot studies, HCT116 cells (5×10^6) were seeded into 10 cm dishes in McCoy's 5A plus 10% FBS. […] Cells were allowed to adhere overnight prior to addition of the indicated amount of test compound (BVD-523) or vehicle control. Cells were treated for either 4 or 24 hours before isolation of whole-cell protein lysates, as specified below. Cells were harvested by trypsinisation, pelleted and snap frozen. Lysates were prepared with RIPA (Radio-Immunoprecipitation Assay) buffer, clarified by centrifugation and quantitated by bicinchoninic acid assay (BCA) assay. 20-50 μg of protein was resolved by SDS-PAGE electrophoresis, blotted onto PVDF membrane and probed using the antibodies detailed in Table 14 (for the 4-hour treatment) and Table 15 (for the 24-hour treatment) below.

[7] = system: RKO Parental; experiment: Single agent proliferation assay (CellTiter-Glo, 72 h); format: cell-based
[8] = system: HCT116 Parental; experiment: as above; format: cell-based; conditions: Homo sapiens, HCT-116
[9] = system: A375 cells; experiment: Combination study, 10×8 dose matrix, Alamar Blue and CellTiter-Glo, Bliss additivity model; format: cell-based, human; conditions: single agent
Procedure: Combinations were tested using a 10×8 dose matrix with a final DMSO concentration of 0.2%. A 96 hour assay incubation period followed, with subsequent addition of Alamar Blue 10% (v/v) and 4 hours incubation prior to reading on a fluorescent plate reader. After reading Alamar Blue, the medium/Alamar Blue mix was flicked off and 100 μl of CellTiter-Glo/PBS (1:1) added and the plates processed as per the manufacturer's instructions (Promega). Media only background values were subtracted before the data was analysed. The Bliss additivity model was then applied.
In brief, predicted fractional inhibition values for combined inhibition were calculated using the equation Cbliss=A+B−(A×B) where A and B are the fractional inhibitions obtained by drug A alone or drug B alone at specific concentrations. Cbliss is the fractional inhibition that would be expected if the combination of the two drugs were exactly additive. Cbliss values are subtracted from the experimentally observed fractional inhibition values to give an ‘excess over Bliss’ value. Excess over Bliss values greater than 0 indicate synergy, whereas values less than 0 indicate antagonism. Excess over Bliss values are plotted as heat maps±SD.
The single and combination data are also presented as dose-response curves generated in GraphPad Prism (plotted using % viability relative to DMSO only treated controls).

[10] = system: A375 cells escalated with dabrafenib + trametinib (Dab/Tram line)
[11] = system: A375 cells escalated with BVD-523 (BVD-523 line); experiment: Proliferation assay (Alamar Blue, 96 hours), dose escalation study; format: cell-based; conditions: Homo sapiens, A-375, Month 3, growing in 1.2 μM BVD-523, read-out: Relative IC50
[12] = system: A375 NRAS (Q61K/+); experiment: Single agent proliferation assay (CellTiter-Glo, 72 h); format: cell-based; conditions: Homo sapiens, A-375
[13] = system: A375 Parental; experiment: as above; format: cell-based; conditions: Homo sapiens, A-375

IC50 [4] [nM] | IC50 [12] [nM] | Compound | Combination interaction with Sorafenib [1] | Combination interaction with AZ628 [2] | Combination interaction with Sorafenib ([2]; Trametinib: with higher concentrations of Sorafenib) | Dose escalation progress [3] | IC50 [5] [nM] | Concentrations required to induce changes in substrate phosphorylation and effector targets of ERK kinases ([6]; RAF and RAS mutant cancer cells in-vitro, acute and prolonged treatment) | RSK1/2 phosphorylation at residues strictly dependent on ERK (T359/5363) ([6]; following BVD-523 treatment) | Cellular ERK enzyme activity ([6]; following either acute or prolonged treatment) | IC50 [7] [nM] | IC50 [8] [nM] | Concentration in which escalated cells were growing [3] [× parental cell IC50] | Sensitivity of A375 cells, which carry a BRAF (V600E) mutation [9] | IC50 [10] [nM] | IC50 [11] [nM] | IC50 [13] [nM]
– | 6 | CC(=O)O[C@H]1C(=O)[C@@]2(C)[C@H]([C@H](OC(=O)c3ccccc3)[C@]3(O)C[C@H](OC(=O)[C@H](O)[C@@H](NC(=O)c4ccccc4)c4ccccc4)C(C)=C1C3(C)C)[C@]1(OC(C)=O)CO[C@@H]1C[C@@H]2O [Paclitaxel] | – | – | – | – | – | – | – | – | – | – | – | – | – | – | –
141 | 79 | O=C(Nc1ccc2[nH]nc(-c3ccncc3)c2c1)[C@@H]1CCN(CC(=O)N2CCN(c3ccc(-c4ncccn4)cc3)CC2)C1 [SCH772984] | – | – | – | – | 125 | – | – | – | 126 | 116 | – | – | – | – | 43
6 | – | CC(=O)Nc1cccc(-n2c(=O)n(C3CC3)c(=O)c3c(Nc4ccc(I)cc4F)n(C)c(=O)c(C)c32)c1 [Trametinib, trametinib] | – | – | – | – | 3 | – | – | – | 8 | 7 | 100 | – | – | 1.7 | 0.3

The next lines start with the compound.

Compound | IC50 [4] [nM] | IC50 [12] [nM] | Combination interaction with Sorafenib [1] | Combination interaction with AZ628 [2] | Combination interaction with Sorafenib ([2]; Trametinib: with higher concentrations of Sorafenib) | Dose escalation progress [3] | IC50 [5] [nM] | Concentrations required to induce changes in substrate phosphorylation and effector targets of ERK kinases ([6]; RAF and RAS mutant cancer cells in-vitro, acute and prolonged treatment) | RSK1/2 phosphorylation at residues strictly dependent on ERK (T359/5363) ([6]; following BVD-523 treatment) | Cellular ERK enzyme activity ([6]; following either acute or prolonged treatment) | IC50 [7] [nM] | IC50 [8] [nM] | Concentration in which escalated cells were growing [3] [× parental cell IC50] | Sensitivity of A375 cells, which carry a BRAF (V600E) mutation [9] | IC50 [10] [nM] | IC50 [11] [nM] | IC50 [13] [nM]
CC(C)Nc1cc(-c2c[nH]c(C(=O)N[C@H](CO)c3cccc(Cl)c3)c2)c(Cl)cn1 [BVD-523] | 316 | – | window of synergy | windows of synergy | windows of synergy | progressed more slowly | 762 | low micromolar range | reduced phosphorylation | fully inhibited | 621 | 256 | – | – | – | – | –
CC(C)(C)c1nc(-c2cccc(NS(=O)(=O)c3c(F)cccc3F)c2F)c(-c2ccnc(N)n2)s1 [Dabrafenib, dabrafenib] | – | – | – | – | – | quickest | – | – | – | – | – | – | 100 | sensitive | 58 | 18.4 | –
O=C(NOCCO)c1ccc2cncn2c1Nc1ccc(I)cc1F [GDC-0623] | 29 | 10 | – | – | – | – | 5 | – | – | – | 32 | 31 | – | – | – | – | 8
O=C(c1ccc(F)c(F)c1Nc1ccc(I)cc1F)N1CC(O)([C@@H]2CCCCN2)C1 [GDC-0973] | 61 | 3 | – | – | – | – | 31 | – | – | – | 40 | 90 | – | – | – | – | 2
Cn1cnc2c(F)c(Nc3ccc(Br)cc3F)c(C(=O)NOCCO)cc21 [MEK-162] | 113 | 33 | – | – | – | – | 23 | – | – | – | 210 | 114 | – | – | – | – | 23
